# Values joined by “and” are separate entries in the source; they are usually repeats but may differ in a detail not shown here. Equal entries are not always repeated.
# How the values were obtained:
# [1] = molecular target: T1, Human immunodeficiency virus type 1 protease (Human immunodeficiency virus 1, UniProt Q72874); experiment: (§1) Inhibition of HIV-1 protease
# [2] = Binding affinity to HIV protease assessed as inhibition constant; set-up: species or system Human immunodeficiency virus
# [3] = Therapeutic index, ratio of IC50 for cytotoxicity against human H9 cells to EC50 for antiviral activity against HIV-1 infected in H9 cells; format: toxicity, cell-based; conditions: read-out: Ratio IC50/EC50
# [4] = tested on: Human immunodeficiency virus 1; experiment: Antiviral activity against HIV-1 infected in human H9 cells; format: functional, organism-based; conditions: Human immunodeficiency virus 1, H9
# [5] = molecular target: Human immunodeficiency virus type 1 reverse transcriptase (Human immunodeficiency virus 1, UniProt Q72547); experiment: Inhibition of HIV1 reverse transcriptase
# [6] = Inhibition of HIV protease; set-up: species or system Human immunodeficiency virus
# [7] = tested on: Human immunodeficiency virus 1; experiment: Antiviral activity against HIV-1; format: functional, organism-based
# [8] = tested on: Human immunodeficiency virus; experiment: Antiviral activity against HIV infected in human H9 cells; format: functional, organism-based; conditions: Human immunodeficiency virus 1, H9
# [9] = tested on: Human immunodeficiency virus 1; experiment: Antiviral activity against HIV-1 infected in CEM-SS cells; format: functional, organism-based; conditions: Human immunodeficiency virus 1, CEM-SS
# [10] = tested on: Human immunodeficiency virus; experiment: Antiviral activity against HIV; format: functional, organism-based; conditions: Human immunodeficiency virus 1
# [11] = molecular target: T1, Human immunodeficiency virus type 1 protease; experiment: Binding affinity to HIV-1 protease assessed as inhibition constant
# [12] = Inhibition of Hepatitis C virus NS5B polymerase; set-up: species or system Hepacivirus hominis
# [13] = molecular target: Human immunodeficiency virus type 1 protease (Human immunodeficiency virus 1) (UniProt Q72874); experiment: as §1
# [14] = Half life in dog; format: ADME, Canis lupus familiaris; conditions: in vivo
# MT4 = experiment: Cytotoxicity against human MT4 cells by MTT assay; format: functional; conditions: read-out: TD50 (the source's name)
# [15] = tested on: Human immunodeficiency virus 1; experiment: Antiviral activity against HIV-1 IIIB infected in human MT4 cells; format: functional, organism-based; conditions: Human immunodeficiency virus 1, IIIB
# [16] = tested on: Human immunodeficiency virus 1; experiment: Antiviral activity against HIV-1 RTMDR1 infected in human MT4 cells; format: functional, organism-based; conditions: Human immunodeficiency virus 1, RTMDR1, MT4
# [17] = Antiviral activity against HIV-1 infected in human MT4 cells assessed as cell survival relative to control; format: functional, Human immunodeficiency virus 1
# [18] = molecular target: Human immunodeficiency virus type 1 protease (Human immunodeficiency virus 1) (UniProt Q72874); experiment: Inhibition of HIV-1 protease relative to control; conditions: concentration not given here
# Hepatitis C virus = experiment: Antiviral activity against HCV assessed as inhibition of RNA replication; format: functional, organism-based, Hepacivirus hominis
# [19] = tested on: Human immunodeficiency virus 1; experiment: Antiviral activity against HIV-1 infected in human Jurkat cells; format: functional, organism-based; conditions: Human immunodeficiency virus 1, Jurkat
# Human alphaherpesvirus 1 = experiment: Antiviral activity against Herpes simplex virus 1; format: functional, organism-based
# [20] = read-out: ED50 (the source's name)
smiles,measurement,setting,value
Cc1cc(SC2=C(O)C[C@@](CCc3ccc(N)cc3)(C(C)C)OC2=O)c(C(C)(C)C)cc1CO,EC50,[1],0.2 µM
CCC(c1cccc(NC(=O)CCn2ccc3ccccc32)c1)c1c(O)c2ccccc2oc1=O (stereo not given),Ki,[2],0.11 µM
CCC(c1cccc(NC(=O)[C@H](C)NC(=O)OC(C)(C)C)c1)c1c(O)c2ccccc2oc1=O (stereo not given in full),Ki,[2],0.17 µM
CC1(C)Oc2ccc3ccc(=O)oc3c2[C@@H](OC(=O)[C@@]23CC[C@](C)(C(=O)O2)C3(C)C)[C@H]1OC(=O)C12CCC(C)(C(=O)O1)C2(C)C,selectivity ratio,[3],137000
same,EC50,[4]; read-out: EC50,0.256 nM
Cc1cc(=O)oc2c3c(c4c(c12)OC(C)(C)C=C4)O[C@H](C)[C@@H](C)[C@H]3O,IC50,[5],19 µM
CC(=O)CC(c1ccccc1)c1c(O)c2ccccc2oc1=O (stereo not given) [WARFARIN],IC50,[6],30 µM
Cc1cc(=O)oc2c1ccc1oc(C(=O)c3ccccc3)c(-c3ccccc3)c12,EC50,[7],0.0013 µM
CC1(C)C=Cc2c(ccc3ccc(=O)oc23)O1 [SESALIN],EC50,[4]; read-out: EC50,3500 nM
CC(C)(O)C(O)COc1c2occc2cc2ccc(=O)oc12 (stereo not given),EC50,[8]; read-out: EC50,0.115 µg/mL
CCCc1cc(=O)oc2c3c(c4c(c12)OC(C)(C)C=C4)O[C@H](C)[C@@H](C)C3=O,IC50,[5],19 µM
same,EC50,[9],1.2 µM
CCC(c1ccccc1)c1c(O)c2ccccc2oc1=O (stereo not given) [PHENPROCOUMON],Ki,[2],1 µM
same,EC50,[10]; [20],100 µM
CC(C)(C)OC(=O)NC(Cc1c[nH]cn1)C(=O)Nc1cccc(C(c2c(O)c3c(oc2=O)CCCCCC3)C2CC2)c1 (stereo not given),Ki,[2],0.003 µM
CCC(Cc1ccccc1)c1cc(O)c(C(c2cccc(N[C@@H](C)C(=O)OC(C)(C)C)c2)C2CC2)c(=O)o1 (stereo not given in full),Ki,[11],15 nM
CCC(c1cccc(NC(=O)[C@@H]2CCCN2C(=O)OC(C)(C)C)c1)c1c(O)c2ccccc2oc1=O (stereo not given in full),Ki,[2],3.6 µM
CC(C)(C)OC(=O)NCCNc1cccc(C(c2c(O)c3c(oc2=O)CCCCCC3)C2CC2)c1 (stereo not given),Ki,[2],0.0006 µM and 0.004 µM
same,IC50,[10],1 µM
COc1cc2c(cc1O)oc(=O)c1c3cc(O)c(O)cc3oc21,IC50,[12],18.5 µM
CCCC(=O)Nc1cccc(C(c2c(O)c3c(oc2=O)CCCCCC3)C2CC2)c1 (stereo not given),Ki,[2],0.024 µM
O=c1oc2cc(O)ccc2c(O)c1-c1ccc(O)cc1,IC50,[1],2 µM
"CC(=O)O[C@@H]1C(OCC(C)C)c2c(ccc3ccc(=O)oc23)OC1(C)C (single isomer, unassigned)",selectivity ratio,[3],30.6
same,EC50,[4]; read-out: EC50,2260 nM
CCC(c1cccc(NC(=O)CCCNC(=O)OC(C)(C)C)c1)c1c(O)c2ccccc2oc1=O (stereo not given),Ki,[2],1.6 µM
O=c1oc2cc(O)ccc2c(O)c1C(c1ccc2ccccc2c1)c1c(O)c2ccc(O)cc2oc1=O,IC50,[1],4.2 µM
O=c1oc2c(c(O)c1C(c1ccccc1)C1CC1)CCCCCC2 (stereo not given),IC50,[6],57 µM
same,Ki,[2],0.015 µM
CC1(C)OC1COc1c2occc2cc2ccc(=O)oc12 (stereo not given),EC50,[8]; read-out: EC50,2.37 µg/mL
CCNC(=O)Nc1cccc(C(c2c(O)c3c(oc2=O)CCCCCC3)C2CC2)c1 (stereo not given),Ki,[2],0.072 µM
CC(C)(O)C(O)COc1c2ccoc2cc2oc(=O)ccc12 (stereo not given),EC50,[8]; read-out: EC50,10 µg/mL
CC(C)(Cl)C(O)COc1c2occc2cc2ccc(=O)oc12 (stereo not given),EC50,[8]; read-out: EC50,2.25 µg/mL
CCCc1cc(=O)oc2c3c(c4c(c12)OC(C)(C)C=C4)O[C@H](C)[C@@H](C)[C@H]3O [(+)-CALANOLIDE B],IC50,[5],15 µM
same,EC50,[9],0.4 µM
O=c1ccc2cc3ccoc3cc2o1 [PSORALEN],EC50,[8]; read-out: EC50,0.1 µg/mL
CC1(C)OC1COc1c2ccoc2cc2oc(=O)ccc12 (stereo not given),EC50,[8]; read-out: EC50,1 µg/mL
Cc1cc(=O)oc2c3c(ccc12)OC(C)(C)[C@H](OC(=O)C12CCC(C)(C(=O)O1)C2(C)C)[C@@H]3OC(=O)[C@@]12CC[C@](C)(C(=O)O1)C2(C)C,EC50,[4]; read-out: EC50,0.00183 nM
O=c1ccc2cc(O)c(O)cc2o1 [ESCULETIN],EC50,[8]; [20],2.51 µg/mL
Cc1cc(=O)oc2c3c(c4c(c12)OC(C)(C)C=C4)O[C@H](C)[C@@H](C)[C@@H]3O [(+)-CORDATOLIDE A],IC50,[5],12.3 µM
O=c1oc2ccccc2c(O)c1C(c1ccc(C(c2c(O)c3ccccc3oc2=O)c2c(O)c3ccccc3oc2=O)cc1)c1c(O)c2ccccc2oc1=O,IC50,[1],11.5 µM
same,ID50,[13],1.7 µM
O=c1oc(-c2ccccc2)cc(O)c1Sc1ccccc1,IC50,[1],3 µM
CCC(Cc1ccccc1)c1cc(O)c(C(CC)c2ccccc2)c(=O)o1 (stereo not given),IC50,[7],3 µM
C/C=C(\C)O[C@@H]1c2c(ccc3ccc(=O)oc23)OC(C)(C)[C@@H]1OC(C)=O,EC50,[4]; read-out: EC50,4600 nM
N#Cc1ccc(S(=O)(=O)Nc2cccc(C(c3c(O)c4c(oc3=O)CCCCCC4)C3CC3)c2)cc1 (stereo not given),half-life,[14],6 h
same,Ki,[2],0.0008 µM
same,IC50,[10],1.5 µM
CCC(Cc1ccccc1)c1cc(O)c(C(c2cccc(NC(=O)[C@H](Cc3c[nH]cn3)NC(=O)OC(C)(C)C)c2)C2CC2)c(=O)o1 (stereo not given in full),CC50,MT4,≥ 30 µM
same,IC50,[15],3 µM
CCC(c1cccc(NC(=O)CCNC(=O)OC(C)(C)C)c1)c1c(O)c2ccccc2oc1=O (stereo not given),Ki,[2],0.28 µM
CCC(c1cccc(NS(=O)(=O)c2ccc(C#N)cn2)c1)c1c(O)c2c(oc1=O)CCCC2 (stereo not given),Ki,[11],0.05 nM
same,EC50,[4]; [20],950 nM
COc1cc2c(cc1O)oc1c3ccc(O)cc3oc(=O)c21,IC50,[12],174 µM
COC(C)(C)C(O)COc1c2ccoc2cc2oc(=O)ccc12 (stereo not given),EC50,[8]; read-out: EC50,33 µg/mL
O=c1oc2ccccc2c(O)c1C(c1ccccc1)c1c(O)c2ccccc2oc1=O,IC50,[1],43 µM
COc1cc2oc(=O)c3c4cc(OC)c(O)cc4oc3c2cc1O,IC50,[12],311 µM
CCc1cc(=O)c2ccc3c(c2o1)[C@@H](OC(=O)[C@@]12CC[C@](C)(C(=O)O1)C2(C)C)[C@@H](OC(=O)C12CCC(C)(C(=O)O1)C2(C)C)C(C)(C)O3,EC50,[16],0.06 µM
O=c1oc2ccccc2c(O)c1C(c1ccc2c(c1)OCO2)c1c(O)c2ccccc2oc1=O,ID50,[13],30 µM
O=C(O)COc1ccc(-c2cc(O)c(SCCc3ccccc3)c(=O)o2)cc1,IC50,[1],0.16 µM
O=c1oc2ccccc2c(O)c1Sc1c(O)c2ccccc2oc1=O,ID50,[13],21 µM
CC(C)c1cccc(C(C)C)c1NC(=O)C(=O)CC(=O)CC(c1ccccc1)c1c(O)c2ccccc2oc1=O (stereo not given),ID50,[13],31 µM
CCCc1cc(=O)oc2c3c(c4c(c12)OC(C)(C)C=C4)O[C@H](C)[C@@H](C)[C@@H]3O [CALANOLIDE A],IC50,[5],20 µM
same,EC50,[9],0.1 µM
CCOC(=O)C(C(C)=O)C(c1cccc([N+](=O)[O-])c1)c1c(O)c2ccccc2oc1=O (stereo not given),Survival,[17],78%
same,inhibition,[18],25%
same,IC50,[1],1e-05 µM
CCC(c1ccccc1)c1c(O)c2c(oc1=O)CCC2 (stereo not given),Ki,[2],0.7 µM
Cc1c(CO)c(=O)oc2c3c(ccc12)OC(C)(C)[C@H](OC(=O)C12CCC(C)(C(=O)O1)C2(C)C)[C@@H]3OC(=O)[C@@]12CC[C@](C)(C(=O)O1)C2(C)C,EC50,[4]; read-out: EC50,4 nM
O=c1oc(-c2ccccc2)cc(O)c1C(SC1CCCC1)C1CCCC1 (stereo not given),IC50,[1],0.225 µM
CCCC1(CCC)CC(O)=C(C(c2ccccc2)C2CC2)C(=O)O1 (stereo not given),IC50,[1],5 µM
O=c1oc2ccc(Br)cc2cc1CSc1nc2cc(F)ccc2[nH]1,EC50,Hepatitis C virus,3.4 µM
CC(C)=CCc1c(O)c(C(=O)C(C)C)c2oc(=O)cc(-c3ccccc3)c2c1O [ISOMESUOL],IC50,[19],2 µM
COc1ccc(C2OC(COc3cc(=O)oc4ccccc34)=NN2C(C)=O)cc1 (stereo not given),MIC,Human alphaherpesvirus 1,130 µg/mL
O=c1oc2cc(O)c(O)cc2c2oc3cc4c(cc3c12)OCO4,IC50,[12],63.8 µM
COc1cc(O)c2c(c1)oc(=O)c1c3cc(O)c(O)cc3oc21 [WEDELOLACTONE],IC50,[12],36.1 µM
CC(C)=CCc1c(O)c(C(=O)C(C)C)c(O)c2c(-c3ccccc3)cc(=O)oc12 [MESUOL],IC50,[19],2 µM
COc1ccc2c(O)c(-c3ccccc3)c(=O)oc2c1,IC50,[10],23.8 µM
O=C(O)CCCCC1(c2ccccc2)CC(O)=C(SCCc2ccccc2)C(=O)O1 (stereo not given),IC50,[1],5 µM
COc1ccc(/C=N\NC(=O)COc2cc(=O)oc3ccccc23)cc1,MIC,Human alphaherpesvirus 1,200 µg/mL
COc1c2ccoc2cc2oc(=O)ccc12 [BERGAPTEN],EC50,[8]; read-out: EC50,0.354 µg/mL
CC(=O)CC(c1ccccc1)c1c(O)c2ccc(C)c(C)c2oc1=O (stereo not given),IC50,[1],1.9 µM
CCCCCCc1cc2c(O)c(C(c3ccccc3)c3c(O)c4cc(CCCCCC)c(O)cc4oc3=O)c(=O)oc2cc1O,ID50,[13],0.32 µM
CSc1ccc(-c2cc3ccccc3oc2=O)cc1,IC50,[10],18.2 µM
CCCc1cc(=O)oc2c3c(c4c(c12)OC(C)(C)C=C4)O[C@H](C)[C@H](C)[C@@H]3O [CALANOLIDE C],IC50,[5],30 µM
CCC(c1cccc(NC(=O)CNC(=O)OC(C)(C)C)c1)c1c(O)c2ccccc2oc1=O (stereo not given),Ki,[2],0.16 µM
